# Patent US8597692B2, “Cocoa extract and use thereof” (Barry Callebaut AG, priority 2007, dated 2013)
# Assays:
# [1] = test system: Male Wistar-Unilever rats; assay: Forced swimming test in rat model for depression (Example 1); type: in vivo
# Protocol: Male Wistar-Unilever rats (HsdCpb:WU) (Harlan, Horst, The Netherlands), weighing 200 to 225 g are weighed and randomly divided into 4 groups (n=12). Cocoa extract according to the invention comprising by weight 54-58% polyphenols, 8-9% theobromine, and 0.5-1.5% phenylethylamine is dissolved in spring water and stirred until homogenization just before its administration at the doses of 24 and 48 mg/kg BW, PO, in a volume of administration of 10 ml/kg BW.
# The test product is orally administered for 14 days twice a day (2×12 and […]) in the morning and in the afternoon Imipramine (Sigma, France) was stored at room temperature and prepared fresh before testing. It is dissolved in spring water and stirred until homogenization just before its administration at a dose of 15 mg/kg BW, PO, in a volume of administration of 10 ml/kg. Imipramine is administered once a day.
# (§1) An open field (40 cm high×60 cm in diameter) divided into 9 areas (8 equal squares and the central zone) is used for the measurement of locomotor and behavioral activity, to exclude the possibility that immobility is due to locomotion problems. The experimental devices for the forced swimming test are plexiglas cylinders (50 cm high×20 cm in diameter) filled to 30 cm depth with water at 25° C. In the slightly lit test room, a CCD-TV camera allows the rats to be observed and filmed on VHS-videotapes from a neighbouring room. During the experimental period, rats are weighed 3 times per week, i.e. Monday, Wednesday and Friday. Each rat is individually placed for 3 min in the center of the open field device 5 hours after the 13th treatment and 15 min before the forced swim test pretest session. This test is performed in order to test the effects of the products used on the locomotor activity of the animals and confirm that the results in the forced swim relate to the animal's mental state as opposed to locomotor ability. Immobility is defined as absence of swimming activity other than that necessary to keep the rat's head above the water. Imipramine (15 mg/kg BW, PO) is used as the antidepressant reference substance.
# The test product and the vehicle are orally administered for 14 days, twice a day in the morning and in the afternoon. On D13, the products are administered just after the pretest session which lasted 15 minutes. On D14 the products are administered five hours and one hour prior to the forced swimming test. The test session lasts 5 minutes. The first five minutes of the initial 15-min swimming pretest and the 5-min swimming test session are videotaped for scoring the duration of immobility. Imipramine (15 mg/kg BW, PO) is used as the antidepressant reference substance.
# [2] = Body weight during the experimental period (Example 1); type: in vivo, rat; details: 14-day treatment; CPE 24 and 48 mg/kg, Imipramine 15 mg/kg PO; IMI difference from D5 to D14
# Protocol: as §1
# [3] = test system: Male Wistar-Unilever rats; assay: Open field test of locomotor and behavioral activity (Example 1); type: in vivo, rat; details: 3 min, 5 hours after the 13th treatment; CPE 24 and 48 mg/kg, Imipramine 15 mg/kg PO
# Protocol: as §1
smiles,measurement,setting,value
"CN(C)CCCN1c2ccccc2CCc2ccccc21 [IMI, Imipramine]","duration of immobility, Test (Mean ± SEM)","[1]; 5-min test session, D14, 15 mg/kg BW PO once a day, n = 12",10.33 ± 1.79
same,change of duration of immobility from pretest to test session (paired t-test),"[1]; CPE 24 and 48 mg/kg, Imipramine 15 mg/kg PO",significantly decreased
same,"duration of immobility in comparison with vehicle, pretest session (Dunnett's t test)","[1]; pretest session after a 13 day-period of treatment, Imipramine 15 mg/kg PO",significantly reduced
same,"duration of immobility, Pretest (Mean ± SEM)","[1]; pretest session, first 5 min, D13, 15 mg/kg BW PO once a day, n = 12",21.25 ± 3.70
same,"durations of immobility in comparison with vehicle, test session (Dunnett's t test)","[1]; test session D14, CPE 24 and 48 mg/kg, Imipramine 15 mg/kg PO",significantly reduced
same,body weight compared with the other groups,[2],significantly lower
same,overt behavioral changes or motor dysfunction in the open field test,[3],Neither administration of Imipramine nor CPE showed significant differences
